Assay results taken from patent publication US12421220B2, “Bicyclic-substituted glutarimide cereblon binders” (C4 THERAPEUTICS, INC., priority 2022, dated 2025).

Target: T1, BRD4 (Homo sapiens, UniProt O60885)
T1 construct: endogenously expressing BRD4 with HiBiT fusion tag via CRISPR; endogenous in cells; host or cells: 293T.92 (BRD4-HiBiT) cells, a CRISPR knock-in made from 293T
Experiment: BRD4 HiBiT degradation assay in 293T.92 (BRD4-HiBiT) cells
Format: cell-based
Settings: 293T.92 cells, 24.0 hours
Text: Example 3: BRD4 HiBiT Method
Dulbecco's modified Eagle medium (DMEM) without phenol red and fetal bovine serum (FBS) were purchased from Gibco (Grand Island, NY, USA). Nano-Glo® HiBiT Lytic Assay System was purchased from Promega (Madison, WI, USA). 293T.92 (BRD4-HiBiT) cell line, endogenously expressing BRD4 with HiBiT fusion tag via CRISPR was made internally from the 293T human cell line acquired from American Type Culture Collection (Rockville, MD, USA). Cell culture flasks and 384-well microplates were acquired from VWR (Radnor, PA, USA) or Corning (Corning, NY, USA).
BRD4 degradation was determined based on quantification of luminescent signal using Nano-Glo® HiBiT Lytic Assay kit. Test compounds were added to the 384-well plate from a top concentration of […] with 11 points, half log titration in duplicates. 293T.92 cells were added into 384-well plates at a cell density of 15000 cells per well. The plates were kept at 37° C. with 5% CO2 for […]. The cells treated in the absence of the test compound were the negative control and the cells without Nano-Glo® HiBiT Lytic reagent were the positive control. After 24-hour incubation, Nano-Glo® HiBiT Lytic Assay reagents were added to the cells. Luminescence was acquired on EnVision™ Multilabel Reader (PerkinElmer, Santa Clara, CA, USA).

Structure (SMILES): COC(=O)N1c2ccc3c(nc(Cc4ccccc4)n3[C@H]3CCC[C@H](C(=O)N4CCC(c5ccc6c(c5)OCCN6C5CCC(=O)NC5=O)CC4)C3)c2CC[C@@H]1C (stereo partly drawn) [Compound 32-14, methyl (7S)-2-benzyl-7-methyl-3-[(1S,3S)-3-[4-[4-(2,6-dioxo-3-piperidyl)-2,3-dihydro-1,4-benzoxazin-7-yl]piperidine-i-carbonyl]cyclohexyl]-8,9-dihydro-7H-imidazo[4,5-f]quinoline-6-carboxylate]
- DC50: < 1000 nM
- Emax: < 30%
